In PubChem BioAssay AID1508591:

conditions: rat; liver microsomes; pH 7.4; 15.0 min; 1.0 µM

Row | half-life | SMILES
1 | > 30 min | Cc1cn(-c2cc(NC(=O)c3ccc(C)c(Nc4nccc(-c5cccnc5)n4)c3)cc(C(F)(F)F)c2)cn1
2 | 5.16 min | CCN(CC)C(=O)c1sc2c(c1C)c(=O)n(Cc1ccccc1)c(=O)n2CC(=O)Nc1ccc(OC)cc1
3 | 9.8 min | C=Cc1ccc(Cn2c(C(=O)O)c(CNCc3ccccc3)c3ccc(OC)cc32)cc1
4 | 1.65 min | CC(C)N(CCC(=O)c1ccc2ccccc2c1)Cc1ccccc1
5 | > 30 min | FC(F)(F)c1cccc(N2CCN(C(=S)Nc3nccc4ccccc34)CC2)c1
6 | 22.2 min | CCN1CCN(C(=O)CCCn2nc(C)c3c(C)n(-c4ccc(C)cc4)nc3c2=O)CC1
7 | 1.95 min | NC(=O)C1CCN(c2nc(-c3cccc(F)c3)cs2)CC1
8 | 2.3 min | NC(=O)C1CCN(c2nc(-c3cccc([N+](=O)[O-])c3)cs2)CC1
9 | 7.2 min | CCc1ccccc1C(=O)N1CCc2cc(-c3nc(NC(=O)Cc4ccc5c(c4)OCO5)sc3C)ccc21
10 | 9.9 min | CNc1ncc(-c2cccc3ccccc23)o1
11 | 3.09 min | Nc1ncnc2c1c(-c1cnc3[nH]ccc3c1)nn2C1CCCC1
12 | 8.43 min | CN(C)c1cccc(-c2nccc(N3CCC(C(N)=O)CC3)n2)c1
13 | 23.9 min | Cc1ccccc1C(=O)Nc1sc2c(c1C(=O)NCc1ccco1)CCC(C(C)(C)C)C2 (configuration not stated)
14 | > 30 min | O=C(Cc1nc2ccc(Cl)cc2[nH]1)Nc1ccc(S(=O)(=O)Nc2nccs2)cc1
15 | > 30 min | O=C(Nc1ccc(S(=O)(=O)Nc2nccs2)cc1)c1cccc2ccccc12
16 | 2.3 min | O=C1CCCC2=C1C1(CCSCC1)N=C(Nc1nc3ccccc3o1)N2
17 | 15 min | NC(=O)C1CCN(c2ncc(-c3cccc(N4CCCC4)c3)s2)CC1
18 | > 30 min | CC(C)Oc1ccc(-c2csc(N3CCC(C(N)=O)CC3)n2)cc1
19 | 11.2 min | COc1ccccc1Nc1ccnc(N2CCN(C(=O)c3ccc(F)cc3)CC2)n1
20 | 9.4 min | O=C1CCCC2=C1C(c1[nH]ncc1Cl)N=C(Nc1nc3cc([S+](=O)([O-])N4CCOCC4)ccc3o1)N2 (configuration not stated)
21 | 2.26 min | Cc1ccnc(N=C(N)N2CCN(c3cccc(C(F)(F)F)c3)CC2)c1
22 | 5.67 min | CC(C)c1ccc(CC(=O)N2CCCc3ncc(C(=O)Nc4cccnc4)cc32)cc1
23 | > 30 min | Cc1ccccc1NC(=O)Nc1cccs1
24 | 20 min | Cc1ccc(S(=O)(=O)Nc2cnccc2C(=O)Nc2nc(-c3cc4ccccc4o3)cs2)cc1
25 | > 30 min | O=c1cc(N2CCOCC2)oc2c1ccc1ccccc12

Row | half-life | SMILES
26 | 1.02 min | O=c1[nH]nc(Sc2ncc([N+](=O)[O-])s2)n1-c1ccc2c(c1)OCCO2
27 | > 30 min | O=C(Nc1ncc(Cc2ccccc2)s1)c1ccc(-c2cccc([N+](=O)[O-])c2)o1
28 | 21 min | Fc1cnc(-c2ccccc2C(F)F)nc1NCc1ccc(-n2ccnn2)cc1
29 | 28 min | CC(C)C(=O)Nc1cccc(NC(=O)c2cc3ccccc3o2)c1
30 | 6 min | Cc1cccc(NC(=S)N2CCN(c3cccc(C(F)(F)F)c3)CC2)c1
31 | > 30 min | Cn1c(CN2CCCCC2)nc2cc(NC(=O)c3cccc(Br)c3)ccc21
32 | 3.2 min | Cc1cc(-c2nnc3n2CCCCC3)c(C)n1-c1ccc(F)cc1
33 | > 30 min | COc1cccc(-n2nc(C(=O)O)cc2-c2ccc(C3CCCCC3)c(Cl)c2)c1
34 | 7.3 min | Cc1ccc(S(=O)(=O)Nc2ccccc2C(=O)Nc2ccc(-c3ccccc3)cc2)cc1
35 | 1.82 min | CC(C)c1ccc(OCc2nc3c(n2Cc2ccccc2)C(=O)N(CC2CC2)CCN3)cc1
36 | 2.66 min | CCn1c(=O)cc(OCC(=O)N2CCN(c3cccc(Cl)c3)CC2)c2ccccc21
37 | > 30 min | CC(C)CN(CC(=O)N(CCCN1CCCC1=O)CC(N)=O)C(=O)CNCCc1ccccc1F
38 | > 30 min | COc1ccc2c3c([nH]c2c1)C1CC2C(CC(O)C(OC)C2CO)CN1CC3 (configuration not stated)
39 | > 30 min | CC(C)c1ccc2oc3nc(N)c(C(=O)O)cc3c(=O)c2c1
40 | 10.4 min | COc1ccc(-n2c(C)c(C(C)=O)c3cc(OC(=O)COc4ccccc4)ccc32)cc1
41 | 1.28 min | Cc1cccc(N2CCN(C(=O)c3ccc4c(c3)C(O)CCCCCN4C)CC2)c1 (configuration not stated)
42 | 1.56 min | CC1CC(C)(C)N(C(=O)CN2C(=O)c3ccccc3C2=O)c2ccccc21 (configuration not stated)
43 | 12.9 min | CNc1sc(-c2cccc3ccccc23)nc1C#N
44 | 12 min | CNc1oc(-c2cccc(-c3ccccc3)c2)nc1C#N
45 | 6.1 min | CCN1C(=O)c2ccccc2S(=O)c2ccc(NC(=O)Cc3ccc(OC)cc3)cc21 (configuration not stated)
46 | 4.16 min | Cc1ccc(C(=O)Nc2nc(-c3ccccn3)cs2)cc1S(=O)(=O)N1CCOCC1
47 | 1.74 min | CC(C)(C)c1ccc(SC2=NS(=O)(=O)c3ccccc32)cc1
48 | > 30 min | CC(=O)NC1CCN(c2nc(-c3ccc(Br)cc3)cs2)CC1
49 | 1.7 min | Cc1noc(C)c1C(=O)N1CCC2(CCCN(C(c3ccccc3)c3ccccc3)C2)CC1
50 | 4.8 min | CNc1nc(C#N)c(-c2cccc3ccccc23)o1

Row | half-life | SMILES
51 | > 30 min | Cn1cc(Nc2cnccc2C(=O)O)c2cccnc21
52 | > 30 min | O=C(Nc1ccc2oc(-c3cccnc3)nc2c1)c1ccc(-c2cccc(Cl)c2)o1
53 | > 30 min | COc1c(C)cc(NC(=O)c2nn(Cc3ccc(F)cc3)c3c2CN(C(=O)c2ccc[nH]2)C[C@]3(C)C(N)=O)cc1C
54 | 2.3 min | O=C(Nc1ncnc2sc3c(c12)CCCCC3)c1ccco1
55 | > 30 min | O=C(O)Cn1c(C(=O)Nc2nc(-c3ccccc3Cl)cs2)cc2ccccc21
56 | 4.02 min | NC(=O)C1CCN(c2nc(-c3ccccc3Cl)cs2)CC1
57 | 1.6 min | Cc1ccc(S(=O)(=O)Nc2ccccc2C(=O)Nc2nccs2)cc1
58 | > 30 min | O=C(NC[C@H]1Cn2c(-c3ccc(Cl)cc3)cnc2CO1)C1CCCC1
59 | 22.7 min | O=C(NCC1CCN(Cc2cccc(Cl)c2)CC1)Nc1ccc(F)c(Cl)c1
60 | > 30 min | CN(C)c1cccc(-c2c3c(=O)n(-c4ccccc4Cl)[nH]c3cc(=O)n2C)c1
61 | > 30 min | CN(C)C(=O)c1nc(-c2ccc(S(C)(=O)=O)cc2)c2cnccn12
62 | 10.1 min | N=c1c2c(ncn1-c1ccccc1)Oc1ccc3ccccc3c1C2c1ccc2c(c1)CCO2 (configuration not stated)
63 | 1.41 min | CCCC1=Nc2cc(C(=O)NC3CCCC3)ccc2Sc2ccc(C)cc21
64 | 1.9 min | CCOc1ccc(CCNC(=O)c2ccc(Oc3ccccc3)cc2)cc1OCC
65 | > 30 min | O=[S+]([O-])(Nc1ccc(N2CCNCC2)cc1)c1ccc(NCc2ccc(Cl)cc2O)cc1
66 | > 30 min | O=c1[nH]c(N2CCOCC2)nc2c1CCN(Cc1ccc(Cl)cc1F)CC2
67 | > 30 min | Cc1cc(C)nc(NC(=S)N2CCN(c3cccc(OC(F)F)c3)CC2)c1
68 | 2.13 min | CC1=C[C@@H](CNCc2cccnc2)[C@H](C(C)C)C[C@H]1Cc1nnc(-c2ccc([N+](=O)[O-])cc2)o1
69 | 2.09 min | Cn1ccc2cc(-c3csc(N4CCC(C(N)=O)CC4)n3)ccc21
70 | 11 min | COc1ccc(NC(=O)c2cccnc2C)cc1S(=O)(=O)Nc1ccc(Br)cc1
71 | 5.17 min | OCc1ccc(-c2nn(Cc3ccccc3)c3ccccc23)o1
72 | 15 min | CN1C(=O)c2ccccc2[S@](=O)c2ccc(C(=O)NCc3ccc(Cl)cc3)cc21
73 | 3.77 min | Cc1cc(SCC(=O)c2ccccc2)n2ncc(-c3ccccc3)c2n1
74 | 7.7 min | CCN1C(=O)c2ccccc2[S@](=O)c2ccc(C(=O)N[C@H](C)c3ccc(Br)cc3)cc21
75 | 1.65 min | O=C(NCCCc1ccccc1)c1cccc(-c2cc(O)c3ncccc3c2)c1

Row | half-life | SMILES
76 | 14 min | O=C1CCCC2=C1C(c1[nH]ncc1Br)N=C(Nc1nc3ccccc3o1)N2 (configuration not stated)
77 | 20.1 min | Cc1ccc(Nc2nc(C)c(NC(=O)c3ccc(C)cc3)c(Nc3ccc(C)cc3)n2)cc1
78 | 2.55 min | Fc1cccc(CNc2nc(-c3ccccc3C(F)(F)F)nc3ccccc23)c1
79 | > 30 min | CN(C)C(=O)c1ccc(-c2cc[nH]c(=O)c2N)cc1
80 | > 30 min | O=C(NC1CC1)C1CCCN1C(=O)c1cccc(-c2ccccn2)c1 (configuration not stated)
81 | 7.7 min | COc1ccc(NC(=O)c2ccccc2)cc1S(=O)(=O)Nc1ccc(Br)cc1
82 | > 30 min | CNC(=O)c1nn(C)c2c1C(C)(C)Cc1cnc(Nc3ccc(N4CCN(C)CC4)cc3)nc1-2
83 | > 30 min | COc1cccc(CNc2ccc(S(=O)(=O)Nc3ncc(-c4ccccc4)s3)cc2)c1O
84 | 3.9 min | Cc1c(O)ccc2c1OC(C)(C)CC2
85 | 1.64 min | CCOc1ccccc1CNS(=O)(=O)c1ccc(-c2cnc(C3CC3)o2)cc1
86 | 8.26 min | COc1ccc(CCNC(=O)c2cc3c(=O)n4ccccc4nc3n(CCCN3CCOCC3)c2=N)cc1
87 | > 30 min | CC(C)CC(=O)Nc1n[nH]c2c1CN(C(=O)C1CCN(C)CC1)C2(C)C
88 | > 30 min | CCN1CCN(CC(=O)Nc2ccc(-c3cccc4c(=O)cc(N5CCOCC5)oc34)c3sc4ccccc4c23)CC1
89 | > 30 min | CC[C@H]1NC(=O)[C@@H](NC(=O)c2ncccc2O)[C@@H](C)OC(=O)[C@H](c2ccccc2)NC(=O)[C@@H]2CC(=O)CCN2C(=O)[C@H](Cc2ccccc2)N(C)C(=O)[C@@H]2CCCN2C1=O
90 | 1.58 min | CC(=O)O[C@H]1CC[C@]2(C)C(=CC[C@H]3[C@H]4C[C@H]5O[C@]6(CC[C@H](C)CN6)[C@H](C)[C@@H]5[C@]4(C)CC[C@@H]32)C1
91 | > 30 min | COc1cccc(CNc2ccc(C(=O)Nc3nccs3)cc2)c1O
92 | 17 min | CNc1oc(-c2cccc3ccccc23)nc1C(=O)Nc1cccc(C#N)c1
93 | > 30 min | Cc1ccc(C(=O)Nc2nc3nc(-c4ccccc4)cc(=O)n3[nH]2)cc1
94 | 2.5 min | CCOc1ccc(C(C)CNC(=O)c2cc3sccc3n2Cc2ccccc2)cc1OCC (configuration not stated)
95 | 1.45 min | CN(C)c1cccc(-c2nc(N3CCC(C(N)=O)CC3)ncc2F)c1
96 | 4.3 min | O=S(=O)(Nc1cccc2ccccc12)c1ccc(NCc2cccc(Cl)c2O)cc1
97 | > 30 min | COc1cc(-c2c(C#N)c(N)nc3c2c(C)nn3-c2ccc(F)cc2)ccc1O
98 | 10 min | COc1cccc(CNc2ccc(S(=O)(=O)Nc3ccc4ccccc4c3)cc2)c1O

Row | SMILES | half-life
99 | CCOc1ccc(CCNC(=O)c2cc3cnccc3n2Cc2cccc(C)n2)cc1OCC | 29 min
100 | C#CC1(O)CCC2C3CCC4=C/C(=N/OCC(=O)NCC(=O)NC(C(=O)O)C(C)C)CC[C@]4(C)C3CC[C@@]21C (some centres not stated) | > 30 min
101 | COc1ccc2c(c1)/C(=C/c1cnc[nH]1)C(=O)N2 | > 30 min
102 | C[C@H]1CCC[C@H](O)CCC/C=C/c2cc(O)cc(O)c2C(=O)O1 | 15.2 min
